Read-outs that look alike come from different tables or passages of the source. Each block holds one compound with its values, some of them ahead of it.
Legend:
[1] = tested on: tubulin; assay: Induction/enhancement of tubulin assembly (Lin, et al., 1996); assay type: biochemical; conditions: 10 μM tubulin, 0.4M monosodium glutamate, 30 min at room temperature
[2] = tested on: MCF-7; assay: Cytotoxicity, standard NCI assay with sulforhodamine B, 96 h; conditions: for GI50: read-out: cytotoxicity (GI50, nM ± SD) MCF-7; for IC50: read-out: Cytotoxicity (nM, ± SD) MCF-7
[3] = tested on: OVCAR-8; assay: as above; conditions: for GI50: read-out: cytotoxicity (GI50, nM ± SD) OVCAR-8; for IC50: read-out: Cytotoxicity (nM, ± SD) OVCAR-8
[4] = tested on: NCI/ADR-RES; assay: as above; assay type: cell-based, human; conditions: Homo sapiens, NCI/ADR-RES, 96 h, read-out: Cytotoxicity (nM, ± SD) NCI/ADR-RES
[5] = tested on: MDA-MB-435; assay: as above; assay type: cell-based, human; conditions: Homo sapiens, MDA-MB-435, 96 h, read-out: Cytotoxicity (nM, ± SD) MDA-MB-435
[6] = tested on: SNB-75; assay: as above; assay type: cell-based, human; conditions: Homo sapiens, SNB-75, 96 h, read-out: Cytotoxicity (nM, ± SD) SNB-75
[7] = Table 2, read-out: induction of tubulin assembly (EC50, μM ± SD)
[8] = OVCAR-8, 96 h at 37° C., Table 2
[9] = Table 3, read-out: Enhancement of tubulin assembly (EC50)

SMILES: C/C1=C/C[C@@H](/C(C)=C/c2csc(C)n2)OC(=O)C[C@H](O)C(C)(C)C(=O)[C@H](C)[C@@H](O)[C@@H](C)CCC1 [EpoD, epothilone D, reference compound]
EC50 [1, 7]: 18 µM
GI50 ([2]; MCF-7, 96 h at 37° C., Table 2): 14 ± 1 nM
GI50 [3, 8]: 13 ± 4 nM

EC50 [1, 7]: 4.5 ± 0.7 µM
SMILES: C/C(=C\c1csc(C)n1)[C@@H]1C[C@@H]2O[C@]2(C)CCC[C@H](C)[C@H](O)[C@@H](C)C(=O)C(C)(C)[C@@H](O)CC(=O)N1 [Ixab, ixabepilone, reference compound]
GI50 ([2]; Homo sapiens, MCF7, 96 h): 7 ± 1 nM
GI50 ([3]; Homo sapiens, OVCAR-8, 96 h): 35 ± 10 nM

SMILES: CSc1nc(/C=C(\C)[C@@H]2C[C@@H]3N(CCO)[C@]3(C)CCC[C@H](C)[C@H](O)[C@@H](C)C(=O)C(C)(C)[C@@H](O)CC(=O)O2)cs1 (some centres unmarked) [Compound 78]
EC50 [1, 9]: 14 ± 3 µM
IC50 [4]: 55 ± 7 nM
IC50 [5]: 42 ± 5 nM
IC50 [6]: 60 ± 10 nM
IC50 ([2]; Homo sapiens, MCF7, 96 h): 28 ± 6 nM
IC50 ([3]; Homo sapiens, OVCAR-8, 96 h): 75 ± 10 nM

SMILES: C/C(=C\c1csc(N)n1)[C@@H]1C[C@@H]2N(CCO)[C@]2(C)CCC[C@H](C)[C@H](O)[C@@H](C)C(=O)C(C)(C)[C@@H](O)CC(=O)O1 (some centres unmarked) [Compound 83]
EC50 [1, 9]: 13 ± 0.4 µM
IC50 [4]: 3800 nM
IC50 [5]: 220 ± 30 nM
IC50 [6]: 280 ± 30 nM
IC50 ([2]; Homo sapiens, MCF7, 96 h): 330 ± 40 nM
IC50 ([3]; Homo sapiens, OVCAR-8, 96 h): 290 ± 10 nM

SMILES: C/C(=C\c1ccn(-c2ccc(N)cc2C(F)(F)F)n1)[C@@H]1C[C@@H]2O[C@]2(C)CCC[C@H](C)[C@H](O)[C@@H](C)C(=O)C(C)(C)[C@@H](O)CC(=O)O1 [Compound 13]
EC50 [1, 7]: > 40 µM
GI50 ([2]; Homo sapiens, MCF7, 96 h): 9 ± 1 nM
GI50 ([3]; Homo sapiens, OVCAR-8, 96 h): 35 ± 5 nM

SMILES: C/C(=C\c1csc(C)n1)[C@@H]1C/C=C\CCC[C@H](C)[C@H](O)[C@@H](C)C(=O)C(C)(C)[C@@H](O)CC(=O)O1 [EpoC, epothilone C, reference compound]
EC50 [1, 7]: 18 µM
GI50 ([2]; MCF-7, 96 h at 37° C., Table 2): 70 nM
GI50 [3, 8]: 110 ± 7 nM

SMILES: C/C(=C\c1csc(C)n1)[C@@H]1C[C@@H]2N(CCO)[C@]2(C)CCC[C@H](C)[C@H](O)[C@@H](C)C(=O)C(C)(C)[C@@H](O)CC(=O)O1 (some centres unmarked) [Compound 71]
EC50 [1, 9]: 18.2 µM
IC50 [4]: 55 ± 20 nM
IC50 ([2]; Homo sapiens, MCF7, 96 h): 3 ± 1 nM
IC50 ([3]; Homo sapiens, OVCAR-8, 96 h): 4.5 ± 0.7 nM

SMILES: CSc1nc(/C=C(\C)[C@@H]2C[C@@H]3N(CC4CC4)[C@]3(C)CCC[C@H](C)[C@H](O)[C@@H](C)C(=O)C(C)(C)[C@@H](O)CC(=O)O2)cs1 (some centres unmarked) [Compound 81]
EC50 [1, 9]: 5.1 ± 0.4 µM
IC50 [4]: 18 ± 4 nM
IC50 [5]: 9.5 ± 2 nM
IC50 [6]: 16 ± 3 nM
IC50 ([2]; Homo sapiens, MCF7, 96 h): 18 ± 3 nM
IC50 ([3]; Homo sapiens, OVCAR-8, 96 h): 15 ± 2 nM

SMILES: C/C(=C\c1csc(C)n1)[C@@H]1C[C@@H]2N[C@]2(C)CCC[C@H](C)[C@H](O)[C@@H](C)C(=O)C(C)(C)[C@@H](O)CC(=O)O1 [Compound 70]
EC50 [1, 9]: 19 µM
IC50 [4]: 35 ± 7 nM
IC50 ([2]; Homo sapiens, MCF7, 96 h): 2 nM
IC50 ([3]; Homo sapiens, OVCAR-8, 96 h): 1.5 ± 0.7 nM

SMILES: CSc1nc(/C=C(\C)[C@@H]2C[C@@H]3N(CCN=[N+]=[N-])[C@]3(C)CCC[C@H](C)[C@H](O)[C@@H](C)C(=O)C(C)(C)[C@@H](O)CC(=O)O2)cs1 (some centres unmarked) [Compound 80]
EC50 [1, 9]: 5.4 ± 0.6 µM
IC50 [4]: 3.2 ± 0.8 nM
IC50 [5]: 7.3 ± 2 nM
IC50 [6]: 22 ± 3 nM
IC50 ([2]; Homo sapiens, MCF7, 96 h): 13 ± 3 nM
IC50 ([3]; Homo sapiens, OVCAR-8, 96 h): 15 nM

Source: patent US10874646B2, “Epothilone analogs, methods of synthesis, methods of treatment, and drug conjugates thereof” (WILLIAM MARSH RICE UNIVERSITY, priority 2015, dated 2020)
